IC50 data for 58 molecules are collected here from the Kinase Knowledgebase extract (Sharma et al. 2016).

As a reminder, the IC50 is the concentration that gives 50% inhibition. Low values mean inhibition by little substance, high ones a need for much substance.

The assay has as its target MAPK14;MAPK11;MAPK12 (human) (UniProt Q16539). In words: Inhibition of p38 Kinase Activity.

`Cc1cc2c(cc1Nc1nc(N[C@H]3CCNC3)nc(N(C)CC(C)(C)C)n1)C(=O)NC2`: the IC50 is less than 1000 nM.

Molecule `CONC(=O)c1ccc(C)c(Nc2nc(F)cc(N(C)CC(C)(C)C)n2)c1` returned an IC50 of less than 1000 nM.

`Cc1ccc(C(=O)NC(C)C)cc1Nc1nc(N[C@H]2CCNC2)nc(N(C)CC(C)(C)C)n1` registered an IC50 of less than 1000 nM.

In the case of `CC(CNc1nc(Nc2ccc3ncsc3c2)nc(N2CC3CC2CN3C(=O)c2ccco2)n1)c1ccccc1` (stereo not drawn), the IC50 is less than 10000 nM.

`Cc1ccc(C(N)=O)cc1Nc1nc(NC2CCCNC2)nc(N(C)CC(C)C)n1` (stereo not drawn) had an IC50 of less than 1000 nM.

Consider `CC(CNc1nc(Nc2ccc3ncsc3c2)nc(N2CCN(C(=O)C3CCOC3)CC2)n1)c1ccccc1` (stereo not drawn), for which the IC50 was less than 10000 nM.

`Cc1ccc(-c2nc3ccccc3[nH]2)cc1Nc1nc(N[C@@H]2CCNC2)nc(N(C)CC(C)(C)C)n1` registered an IC50 of less than 1000 nM.

As to `CONC(=O)c1ccc(C)c(Nc2nc(N(C)CC(C)(C)C)nc(N3CCN(C)CC3)n2)c1`, the IC50 is less than 1000 nM.

The molecule `CCCCC(C)c1nc(Nc2cc(C(N)=O)ccc2C)nc(N[C@H]2CCNC2)n1` (stereo partly drawn) had an IC50 of less than 1000 nM.

The molecule `CNc1nc(Nc2cc(C(N)=O)ccc2C)nc(N[C@H]2CCNC2)n1` gave an IC50 of less than 1000 nM.

`Cc1ccc(C(N)=O)cc1Oc1nc(NCc2ccccn2)nc(N(C)CC(C)(C)C)n1` had an IC50 of less than 30000 nM.

Molecule `O=C(O)CCC(=O)N1CCN(c2nc(Nc3ccc4ncsc4c3)nc(N3CCc4ccccc4C3)n2)CC1` yielded an IC50 of less than 10000 nM.

Molecule `CCONC(=O)c1ccc(C)c(Nc2nc(NC3CCS(=O)(=O)C3)nc(N(C)CC(C)(C)C)n2)c1` (stereo not drawn) returned an IC50 of less than 1000 nM.

`CC(CNc1nc(Nc2ccc3ncsc3c2)nc(N(C)CCCN(C)C(=O)c2ccco2)n1)c1ccccc1` (stereo not drawn) displayed an IC50 of less than 10000 nM.

As for `Cc1ccc(C(N)=O)cc1Nc1nc(N[C@H]2CCN(C(C)(C)C)C2)nc(N(C)CC(C)(C)C)n1`, the IC50 is less than 1000 nM.

Take `Cc1ccc(C(N)=O)cc1Nc1nc(NCC(C)c2ccc(Cl)cc2)nc(N[C@H]2CCNC2)n1` (stereo partly drawn): the IC50 is less than 1000 nM.

As for `Cc1cccc(CN2CC[C@H](Nc3nc(Nc4cc(C(N)=O)ccc4C)nc(N(C)CC(C)C)n3)C2)n1`, the IC50 was less than 1000 nM.

In turn, `CCCCNc1nc(Nc2cc(C(N)=O)ccc2C)nc(N[C@H]2CCNC2)n1` came in with an IC50 of less than 1000 nM.

`CCNC(=O)c1ccc(C)c(Nc2nc(N[C@H]3CCNC3)nc(N(C)CC3CCCC3)n2)c1`: the IC50 is less than 1000 nM.

Molecule `Cc1ccc(C(N)=O)cc1Nc1nc(N[C@H]2CCNC2)nc(OCC(C)(C)C)n1` had an IC50 of less than 1000 nM.

Molecule `CNC(=O)c1ccc(C)c(Nc2nc(N[C@H]3CCN(C(C)CO)C3)nc(N(C)CC(C)(C)C)n2)c1` (stereo partly drawn) returned an IC50 of less than 1000 nM.

With `Cc1ccc(CC2C[C@@H](Nc3nc(Nc4cc(C(N)=O)ccc4C)nc(N(C)CC(C)C)n3)CN2)cc1` (stereo partly drawn), the IC50 was less than 1000 nM.

In turn, `CNCCN(C)c1nc(NC[C@H](C)c2ccccc2)nc(Nc2ccc3ncsc3c2)n1` came in with an IC50 of less than 10000 nM.

For the molecule `Cc1ccc(CN2CCC(Nc3nc(Nc4cc(C(N)=O)ccc4C)nc(N(C)CC(C)C)n3)C2)c(C)c1` (stereo not drawn), the IC50 is less than 1000 nM.

`Cc1ccc(COC(=O)C(F)(F)F)cc1Nc1nc(N[C@H]2CCNC2)nc(N(C)CC(C)C)n1` registered an IC50 of less than 1000 nM.

In turn, `CC(CNc1nc(Nc2ccc3ncsc3c2)nc(N2CCN(C(=O)c3ccc(-c4ccccc4)cc3)CC2)n1)c1ccccc1` (stereo not drawn) registered an IC50 of less than 10000 nM.

With `CNCCN(C)c1nc(NCc2ccc(F)cc2F)nc(-n2cnc3ccccc32)n1`, the IC50 is less than 10000 nM.

For the molecule `Cc1ccc(C(N)=O)cc1Nc1nc(N[C@H]2CCN(C(C)C)C2)nc(N(C)CC(C)C)n1`, the IC50 was less than 1000 nM.

Turning to `Cc1ccc(C(N)=O)cc1Nc1nc(NC2CCN(Cc3ccc(C(F)(F)F)cc3)C2)nc(N(C)CC(C)C)n1` (stereo not drawn), the IC50 is less than 1000 nM.

Molecule `CC(C)C(=O)N(C)CCCN(C)c1nc(NCC(C)c2ccccc2)nc(Nc2ccc3ncsc3c2)n1` (stereo not drawn) had a concentration for half-maximal inhibition (IC50) of less than 10000 nM.

`Cc1ccc(CN2CC[C@H](Nc3nc(Nc4cc(C(N)=O)ccc4C)nc(N(C)CC(C)C)n3)C2)cc1` came in with a half-maximal inhibitory concentration (IC50) of less than 1000 nM.

`CC1(C)[C@H]2CC[C@@H](CNc3nc(Nc4ccc5ncsc5c4)nc(N4CCNCC4)n3)[C@@H]1C2` came in with an IC50 of less than 10000 nM.

On to `CNc1nc(Nc2ccc3ncsc3c2)nc(N[C@@H](C)C2CCCCC2)n1`, for which the IC50 is less than 10000 nM.

Turning to `CC(CNc1nc(Nc2ccc3ncsc3c2)nc(N2CC3CC2CN3C(=N)N)n1)c1ccccc1` (stereo not drawn), the IC50 is less than 10000 nM.

The molecule `Cc1ccc(C(N)=O)cc1Nc1nc(NC2CCN(CCc3ccccc3)C2)nc(N(C)CC(C)C)n1` (stereo not drawn) registered an IC50 of less than 1000 nM.

The molecule `Cc1ccc(C(N)=O)cc1Nc1nc(N[C@H]2CCN(C3CCCCC3)C2)nc(N(C)CC(C)C)n1` came in with a half-maximal inhibitory concentration (IC50) of less than 1000 nM.

Consider `CNCCN(C)c1nc(NCc2ccc(Cl)c(Cl)c2)nc(Nc2ccc3ncsc3c2)n1`, for which the IC50 is less than 10000 nM.

Turning to `c1nc2ccc(Nc3nc(NCC4CCCO4)nc(NC4CC4)n3)cc2s1` (stereo not drawn), the IC50 is less than 10000 nM.

`CN(CC1CCCCC1)c1nc(Nc2ccc3ncsc3c2)nc(N2CCNCC2)n1` had a concentration for half-maximal inhibition (IC50) of less than 10000 nM.

`Cc1ccc(C(N)=O)cc1Nc1nc(N[C@H]2CCN(Cc3ccccc3F)C2)nc(N(C)CC(C)C)n1`: the IC50 is less than 1000 nM.

For the molecule `COC(=O)Nc1ccc(C)c(Nc2nc(N[C@H]3CCNC3)nc(N(C)CC(C)(C)C)n2)c1`, the IC50 was less than 1000 nM.

Regarding `Cc1ccc(C(N)=O)cc1Nc1nc(NCC23CC4CC(CC(C4)C2)C3)nc(N[C@@H]2CCNC2)n1`, the 50% inhibitory concentration (IC50) was less than 1000 nM.

`CNC(=O)c1ccc(C)c(Oc2nc(N[C@@H]3CCNC3)nc(N(C)CC(C)(C)C)n2)c1`: the IC50 is less than 30000 nM.

Molecule `Cc1ccc(C(N)=O)cc1Nc1nc(NCCc2ccc(Cl)cc2)nc(N[C@H]2CCNC2)n1` showed an IC50 of less than 1000 nM.

Molecule `Cc1ccc(C(N)=O)cc1Nc1nc(N[C@@H]2CCCC[C@@H]2N)nc(N(C)CC(C)(C)C)n1` displayed an IC50 of less than 1000 nM.

Turning to `Cc1ccc(-c2ncc[nH]2)cc1Nc1nc(N[C@@H]2CCNC2)nc(N(C)CC(C)(C)C)n1`, the IC50 was less than 1000 nM.

`CC(CNc1nc(Nc2ccc3ncsc3c2)nc(N(C)CCCN(C)S(=O)(=O)N(C)C)n1)c1ccccc1` (stereo not drawn) had an IC50 of less than 10000 nM.

For the molecule `COC[C@H]1C[C@@H](Nc2nc(Nc3cc(C(N)=O)ccc3C)nc(N(C)CC(C)(C)C)n2)CN1`, the IC50 was less than 1000 nM.

`CONC(=O)c1ccc(C)c(Nc2nc(NCCCN3CCOCC3)nc(N(C)CC(C)(C)C)n2)c1` came in with an IC50 of less than 1000 nM.

With `Cc1ccc(C(=O)Nc2cccc(F)c2)cc1Nc1nc(N[C@H]2CCNC2)nc(N(C)CC(C)(C)C)n1`, the IC50 is less than 1000 nM.

Molecule `CNC(=O)c1ccc(C)c(Nc2nc(NC3CNC3)nc(N(C)CC(C)(C)C)n2)c1` showed an IC50 of less than 1000 nM.

For the molecule `Cc1ccc(C(N)=O)cc1Nc1nc(O)nc(NCC(C)c2ccccc2)n1` (stereo not drawn), the half-inhibitory concentration (IC50) was less than 1000 nM.

In the case of `Cc1ccc(C(N)=O)cc1Nc1nc(NCc2cccc3ccccc23)nc(N[C@@H]2CCNC2)n1`, the IC50 was less than 1000 nM.

`Cc1ccc(C(N)=O)cc1Nc1nc(N[C@H]2CCN(Cc3ccncc3)C2)nc(N(C)CC(C)C)n1` returned an IC50 of less than 1000 nM.

`CCCc1nc(NCc2ccc(S(N)(=O)=O)cc2)nc(Nc2cccc(-c3ccccc3)c2)n1` had an IC50 of less than 10000 nM.

Molecule `Cc1ccc(CC2CC(Nc3nc(Nc4cc(C(N)=O)ccc4C)nc(N(C)CC(C)(C)C)n3)CN2)cc1` (stereo not drawn) yielded an IC50 of less than 1000 nM.

With `Cc1ccc(C(N)=O)cc1Nc1nc(N[C@H]2CCNC2)nc(N(C)CC2CCCCC2)n1`, the IC50 is less than 1000 nM.

`CC(=O)NCc1ccc(C)c(Nc2nc(N[C@H]3CCNC3)nc(N(C)CC(C)(C)C)n2)c1` yielded an IC50 of less than 1000 nM.
